These results are taken from patent US7135466B2 (Kirin Beer Kabushiki Kaisha, priority 1999, dated 2006).

One assay concerns the target T1, c-kit (Homo sapiens, UniProt P10721).
T1 construct: MO7e (human megakaryocytic leukemia cell line) which had been arrested for 20 hr; endogenous in cells; host or cells: MO7e human megakaryocytic leukemia cell line
Put plainly: Inhibitory activity against c-kit autophosphorylation (MO7e cells, h-SCF). The class given is cell-based. To be noted: for inhibition at 1 µM: Mo7e; for IC50: MO7e cells, h-SCF stimulation, read-out: c-kit IC50. The method, boiled down:
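MO7e cells, arrested for 20 hr, were pretreated with test compound in DMSO for 1 hr and then stimulated with 50 ng/ml h-SCF for 5 min before lysis. Lysates were captured on immobilized anti-phosphotyrosine PY-20, probed with anti-c-kit antibody and HRP anti-rabbit IgG, and read colorimetrically at 450 nm.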

The target of a further assay is T2, PDGF-Ra (Homo sapiens, UniProt P16234).
T2 construct: host or cells: G-292 human osteosarcoma cells
Put plainly: Inhibitory activity against PDGF-Ra phosphorylation by PDGF-AA stimulation using G292. The class given is cell-based. The conditions noted are these: for IC50: > means inhibition at indicated concentration not more than 50%, < and << not less than 50%, read-out: PDGF (E) IC50; for inhibition at 0.1 µM: G292, figure in parentheses in >100( ), at 100 nM, read-out: PDGF (E) inhibition (%) at 100 nM. The method, boiled down: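 Human osteosarcoma G-292, 0.1% FBS o/n; cpd (DMSO) 1 h 37 °C; PDGF-AA 50 ng/ml 5 min; lyse 20 min RT; PY-20 capture 4 °C o/n; anti-PDGF-Ra + HRP-GAR; OD450.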

Where [1] appears, read: figure in parentheses in −( ), at 1000 nM.

T2 sequence (P16234 24-1089): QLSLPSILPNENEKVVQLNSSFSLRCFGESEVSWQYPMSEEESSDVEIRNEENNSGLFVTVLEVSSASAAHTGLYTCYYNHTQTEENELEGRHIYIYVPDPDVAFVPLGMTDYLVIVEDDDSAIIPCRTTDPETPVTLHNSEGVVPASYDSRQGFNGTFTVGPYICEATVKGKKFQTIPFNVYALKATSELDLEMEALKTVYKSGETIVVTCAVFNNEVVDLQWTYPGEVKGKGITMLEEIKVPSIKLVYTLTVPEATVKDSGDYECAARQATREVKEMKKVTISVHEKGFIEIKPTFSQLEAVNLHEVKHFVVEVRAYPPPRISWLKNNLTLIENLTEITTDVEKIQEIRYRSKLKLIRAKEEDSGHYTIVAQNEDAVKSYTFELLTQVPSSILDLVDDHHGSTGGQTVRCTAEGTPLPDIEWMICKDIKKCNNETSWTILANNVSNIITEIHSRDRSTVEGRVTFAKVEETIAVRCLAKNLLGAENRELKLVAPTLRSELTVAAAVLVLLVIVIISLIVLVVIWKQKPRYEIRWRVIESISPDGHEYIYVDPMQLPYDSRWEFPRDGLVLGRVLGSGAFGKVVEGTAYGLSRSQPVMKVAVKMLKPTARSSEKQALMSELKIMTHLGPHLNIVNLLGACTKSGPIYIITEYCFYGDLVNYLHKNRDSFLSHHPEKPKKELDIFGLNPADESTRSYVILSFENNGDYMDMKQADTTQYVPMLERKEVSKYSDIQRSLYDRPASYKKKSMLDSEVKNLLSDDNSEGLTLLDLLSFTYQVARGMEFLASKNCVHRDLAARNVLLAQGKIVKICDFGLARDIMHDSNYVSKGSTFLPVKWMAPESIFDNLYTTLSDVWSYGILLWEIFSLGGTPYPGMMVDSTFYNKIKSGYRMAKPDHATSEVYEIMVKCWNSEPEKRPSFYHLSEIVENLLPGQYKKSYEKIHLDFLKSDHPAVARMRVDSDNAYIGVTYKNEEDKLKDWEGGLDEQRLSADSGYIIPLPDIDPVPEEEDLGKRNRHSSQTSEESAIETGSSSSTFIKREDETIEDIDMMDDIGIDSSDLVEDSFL
T1 sequence (P10721 26-976): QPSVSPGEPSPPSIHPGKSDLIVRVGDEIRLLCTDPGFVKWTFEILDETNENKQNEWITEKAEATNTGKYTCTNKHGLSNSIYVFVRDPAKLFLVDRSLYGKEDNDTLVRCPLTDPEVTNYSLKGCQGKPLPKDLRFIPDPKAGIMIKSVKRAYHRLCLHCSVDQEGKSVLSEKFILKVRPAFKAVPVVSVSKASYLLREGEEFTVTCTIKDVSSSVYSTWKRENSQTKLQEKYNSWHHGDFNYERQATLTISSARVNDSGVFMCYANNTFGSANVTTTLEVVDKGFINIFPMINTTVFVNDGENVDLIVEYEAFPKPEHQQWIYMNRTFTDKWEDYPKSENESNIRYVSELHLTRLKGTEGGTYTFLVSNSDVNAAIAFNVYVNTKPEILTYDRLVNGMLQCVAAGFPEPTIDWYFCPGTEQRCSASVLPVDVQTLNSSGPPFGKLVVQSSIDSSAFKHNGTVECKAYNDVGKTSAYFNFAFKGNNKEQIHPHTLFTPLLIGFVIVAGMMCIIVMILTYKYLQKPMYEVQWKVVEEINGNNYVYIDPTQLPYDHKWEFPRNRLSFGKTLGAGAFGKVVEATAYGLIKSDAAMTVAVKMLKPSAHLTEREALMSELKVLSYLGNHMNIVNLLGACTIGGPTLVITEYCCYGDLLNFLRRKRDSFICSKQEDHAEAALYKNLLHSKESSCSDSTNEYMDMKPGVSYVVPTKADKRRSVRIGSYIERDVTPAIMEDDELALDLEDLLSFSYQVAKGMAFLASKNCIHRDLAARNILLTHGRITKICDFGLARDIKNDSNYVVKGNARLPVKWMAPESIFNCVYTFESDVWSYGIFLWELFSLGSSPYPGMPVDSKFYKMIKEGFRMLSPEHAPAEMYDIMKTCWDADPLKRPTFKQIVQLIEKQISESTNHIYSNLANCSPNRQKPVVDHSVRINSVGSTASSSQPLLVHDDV

`COc1cc2nccc(Oc3ccc(NC(=S)NC(=O)c4ccccc4Cl)c(Cl)c3)c2cc1OC` [Example 1104, N-(2-Chlorobenzoyl)-N′-{2-chloro-4-[(6,7-dimethoxy-4-quinolyl)oxy]phenyl}thiourea]: at c-kit (setting [1]), the inhibition (in general, the relative decrease from the control value, in per cent) at 1 µM stood at 23%. In addition, at PDGF-Ra, the 50% inhibitory concentration (IC50) (in general, the concentration that gives 50% inhibition) turned out to be 77 nM.

Turning to `COc1cc2nccc(Oc3ccc(NC(=S)NC(=O)Cc4ccccc4)c(C)c3C)c2cc1OC` [Example 1105, N-{4-[(6,7-Dimethoxy-4-quinolyl)oxy]-2,3-dimethylphenyl}-N′-(2-phenylacetyl)thiourea], the “c-kit inhibition (%) at 1000 nM” value on c-kit (figure in parentheses in −( ), at 1000 nM, 1 µM) is on record as “−(1) %”. Further, on PDGF-Ra, the concentration for half-maximal inhibition (IC50) was over 100 nM and the inhibition at 0.1 µM came out at 31%.

Take `COc1cc2nccc(Oc3ccc(NC(=S)NC(=O)CCC4CCCC4)c(Cl)c3)c2cc1OC` [Example 1106, N-{2-Chloro-4-[(6,7-dimethoxy-4-quinolyl)oxy]phenyl}-N′-(3-cyclopentylpropanoyl)thiourea]: the inhibition at 1 µM on c-kit (setting [1]) is 0%. Besides, at PDGF-Ra, the IC50 was over 100 nM and the inhibition at 0.1 µM was 30%.

For `COc1cc2nccc(Oc3ccc(NC(=S)NC(=O)c4ccccc4)c(Cl)c3)c2cc1OC` [Example 1107, N-Benzoyl-N′-{2-chloro-4-[(6,7-dimethoxy-4-quinolyl)oxy]phenyl}thiourea], the inhibition at 1 µM on c-kit (setting [1]) worked out at 24%. Besides, at PDGF-Ra, the IC50 was over 100 nM and the inhibition at 0.1 µM stood at 46%.

As to `COc1cc2nccc(Oc3ccc(NC(=S)NC(=O)c4cc(Cl)cc(Cl)c4)c(F)c3)c2cc1OC` [Example 1122, N-(3,5-Dichlorobenzoyl)-N′-{4-[(6,7-dimethoxy-4-quinolyl)oxy]-2-fluorophenyl}thiourea], on c-kit (setting [1]), the inhibition at 1 µM was 26%. At PDGF-Ra, the IC50 is over 100 nM and the inhibition at 0.1 µM turned out to be 48%.

In the case of `COc1cc2nccc(Oc3ccc(NC(=S)NC(=O)c4ccc(-c5ccccc5)cc4)c(F)c3)c2cc1OC` [Example 1125, N-(4-Phenylbenzoyl)-N′-{4-[(6,7-dimethoxy-4-quinolyl)oxy]-2-fluorophenyl}thiourea], at c-kit (setting [1]), the inhibition at 1 µM turned out to be 8%. For the same molecule, on PDGF-Ra, the IC50 is over 100 nM and the inhibition at 0.1 µM worked out at 22%.

With `COc1cc2nccc(Oc3ccc(NC(=S)NC(=O)c4ccc5c(c4)OCO5)cc3Cl)c2cc1OC` [Example 1126, N-(1,3-Benzodioxol-5-ylcarbonyl)-N′-{3-chloro-4-[(6,7-dimethoxy-4-quinolyl)oxy]phenyl}thiourea], at c-kit (setting [1]), the inhibition at 1 µM was determined as 35%. In addition, at PDGF-Ra, the half-maximal inhibitory concentration (IC50) is over 100 nM and the inhibition at 0.1 µM was determined as 70%.

For the molecule `CCCCCCCCc1ccc(C(=O)NC(=S)Nc2ccc(Oc3ccnc4cc(OC)c(OC)cc34)cc2)cc1` [Example 1128, N-{4-[(6,7-Dimethoxy-4-quinolyl)oxy]phenyl}-N′-(4-octylbenzoyl)thiourea], the inhibition at 1 µM at c-kit (setting [1]) came out at 17%. In addition, on PDGF-Ra, the concentration for half-maximal inhibition (IC50) was over 100 nM and the inhibition at 0.1 µM was 47%.

On to `COc1cc2nccc(Oc3ccc(NC(=S)NC(=O)N4CCc5ccccc5C4)cc3)c2cc1OC` [Example 1130, N-{4-[(6,7-Dimethoxy-4-quinolyl)oxy]phenyl}-N′-(1,2,3,4-tetrahydro-2-isoquinolylcarbonyl)thiourea], for which the concentration for half-maximal inhibition (IC50) was 547 nM on c-kit and under 10 nM at PDGF-Ra.

Take `COc1cc2nccc(Oc3ccc(NC(=S)NC(=O)CCC4CCCC4)cc3)c2cc1OC` [Example 1131, N-(3-Cyclopentylpropanoyl)-N′-{4-[(6,7-dimethoxy-4-quinolyl)oxy]phenyl}thiourea]: the IC50 on c-kit was 192 nM; at PDGF-Ra, 51 nM.

Turning to `COc1cc2ncnc(Oc3ccc(NC(=S)NC(=O)CCC4CCCC4)cc3)c2cc1OC` [Example 1132, N-(3-Cyclopentylpropanoyl)-N′-{4-[(6,7-dimethoxy-4-quinazolinyl)oxy]phenyl}thiourea], the IC50 was 146 nM on c-kit and under 10 nM at PDGF-Ra.

In the case of `COc1cc2ncnc(Oc3ccc(NC(=S)NC(=O)CCc4ccccc4C)cc3)c2cc1OC` [Example 1133, N-{4-[(6,7-Dimethoxy-4-quinazolinyl)oxy]phenyl}-N′-[3-(2-methylphenyl)propanoyl]thiourea], the IC50 on c-kit was 42 nM; on PDGF-Ra, under 10 nM.

For the molecule `COc1cc2nccc(Oc3ccc(NC(=S)NC(=O)CCSC)cc3)c2cc1OC` [Example 1135, N-{4-[(6,7-Dimethoxy-4-quinolyl)oxy]phenyl}-N′-[3-(methylsulphenyl)propanoyl]thiourea], the IC50 was 239 nM at c-kit and under 10 nM at PDGF-Ra.

As for `COc1cc2nccc(Oc3ccc(NC(=S)NC(=O)c4ccc(CCl)cc4)cc3)c2cc1OC` [Example 1136, N-[4-(Chloromethyl)benzoyl]-N′-{4-[(6,7-dimethoxy-4-quinolyl)oxy]phenyl}thiourea], the results for the IC50 at c-kit and on PDGF-Ra were 639 nM and 14 nM, respectively.

Take `COc1cc2nccc(Oc3ccc(NC(=S)NC(=O)c4ccc(CCl)cc4)cc3Cl)c2cc1OC` [Example 1137, N-{3-Chloro-4-[(6,7-dimethoxy-4-quinolyl)oxy]phenyl}-N′-[4-(chloromethyl)benzoyl]thiourea]: the inhibition at 1 µM at c-kit (setting [1]) is 38%. Further, the IC50 on PDGF-Ra came to 28 nM.

Consider `COc1cc2ncnc(Oc3ccc(NC(=S)NC(=O)CCCc4ccccc4)cc3)c2cc1OC` [Example 1139, N-{4-[(6,7-Dimethoxy-4-quinazolinyl)oxy]phenyl}-N′-(4-phenylbutanoyl)thiourea], for which the IC50 was 783 nM at c-kit and 12 nM on PDGF-Ra.

In the case of `COc1ccccc1CCC(=O)NC(=S)Nc1ccc(Oc2ncnc3cc(OC)c(OC)cc23)cc1` [Example 1141, N-{4-[(6,7-Dimethoxy-4-quinazolinyl)oxy]phenyl}-N′-[3-(2-methoxyphenyl)propanoyl]thiourea], the concentration for half-maximal inhibition (IC50) at c-kit was 416 nM; at PDGF-Ra, under 10 nM.

As to `COc1cc2ncnc(Oc3ccc(NC(=S)NC(=O)C(C)Oc4ccccc4Cl)cc3)c2cc1OC` (centres unmarked) [Example 1144, N-[2-(2-Chlorophenoxy)propanoyl]-N′-{4-[(6,7-dimethoxy-4-quinazolinyl)oxy]phenyl}thiourea], the inhibition at 1 µM on c-kit (setting [1]) worked out at 30%. Besides, the IC50 on PDGF-Ra is 28 nM.

For `COc1cc2nccc(Oc3ccc(NC(=S)NC(=O)c4ccc(C)s4)cc3)c2cc1OC` [Example 1146, N-{4-[(6,7-Dimethoxy-4-quinolyl)oxy]phenyl}-N′-[(5-methyl-2-thienyl)carbonyl]thiourea], the IC50 is 552 nM on c-kit and 23 nM on PDGF-Ra.

For the molecule `COc1cc2nccc(Oc3ccc(NC(=S)NC(=O)Cc4ccccc4)cc3Cl)c2cc1OC` [Example 1147, N-{3-Chloro-4-[(6,7-dimethoxy-4-quinolyl)oxy]phenyl}-N′-(2-phenylacetyl)thiourea], the IC50 is 105 nM on c-kit and 10 nM at PDGF-Ra.

On to `COc1cc2ncnc(Oc3ccc(NC(=S)NC(=O)Cc4ccccc4)cc3)c2cc1OC` [Example 1148, N-{4-[(6,7-Dimethoxy-4-quinazolinyl)oxy]phenyl}-N′-(2-phenylacetyl)thiourea], for which the IC50 was 42 nM on c-kit and under 10 nM on PDGF-Ra.

With `CCN(C(=S)NC(=O)Cc1ccccc1)c1ccc(Oc2ccnc3cc(OC)c(OC)cc23)cc1` [Example 1149, N-{4-[(6,7-Dimethoxy-4-quinolyl)oxy]phenyl}-N-ethyl-N′-(2-phenylacetyl)thiourea], the IC50 stood at 150 nM at c-kit and 43 nM at PDGF-Ra.

`COc1cc2ncnc(Oc3ccc(N)c(N4CCOCC4)c3)c2cc1OC` [Example 1150]: the IC50 is 192 nM on c-kit and 51 nM at PDGF-Ra.
